Measured values reported in patent US10252989B2, “Picolinamides with fungicidal activity” (DOW AGROSCIENCES LLC, priority 2014, dated 2019).
Read-outs that look alike come from different tables or passages of the source.

Legend:
Zymoseptoria tritici = assay: Fungicidal activity: leaf blotch of wheat (SEPTTR), disease control on wheat seedlings; format: in vivo; conditions: for pest or weed control at 121.5 g/ha: Low-volume cereal activity at 121.5 g/H, wheat leaf blotch
Description: (§1) All fungicides were evaluated using the aforementioned method for their activity vs. all target diseases. Wheat leaf blotch and brown rust activity were also evaluated using track spray applications, in which case the fungicides were formulated as EC formulations, containing 0.1% Trycol 5941 in the spray solutions. Wheat plants (variety Yuma) were grown from seed in a greenhouse in 50% mineral soil/50% soil-less Metro mix until the first leaf was fully emerged, with 7-10 seedlings per pot. These plants were inoculated with an aqueous spore suspension of Zymoseptoria tritici either prior to or after fungicide treatments. After inoculation the plants were kept in 100% relative humidity (one day in a dark dew chamber followed by two to three days in a lighted dew chamber at 20° C.) to permit spores to germinate and infect the leaf. The plants were then transferred to a greenhouse set at 20° C. for disease to develop. When disease symptoms were fully expressed on the 1st leaves of untreated plants, infection levels were assessed on a scale of 0 to 100 percent disease severity. Percent disease control was calculated using the ratio of disease severity on treated plants relative to untreated plants.

Puccinia triticina = assay: Fungicidal activity: wheat brown rust (PUCCRT), disease control on wheat seedlings; format: in vivo; conditions: Low-volume cereal activity at 121.5 g/H
Description: as §1, with “plants. Example B: Evaluation of Fungicidal Activity: Wheat Brown Rust (Puccinia triticina; Synonym: Puccinia recondita f. sp. tritici; Bayer code PUCCRT) Wheat plants (variety Yuma) were grown from seed in a greenhouse in 50% mineral soil/50% soil-less Metro mix until the first leaf was fully emerged, with 7-10 seedlings per pot. These plants were inoculated with an aqueous spore suspension of Puccinia triticina either prior to or after fungicide treatments. […] The plants were then transferred to a greenhouse set at 24° C. for disease to develop. Fungicide formulation, application and disease assessment followed the procedures as described in the Example A.” for “plants.”

[1] = 24 h, 1 Day Protectant, read-out: SEPTTR 1DP disease control rating
[2] = 72 h, 3 Day Curative, read-out: SEPTTR 3DC disease control rating
[3] = 24 h, 1 Day Protectant, read-out: PUCCRT 1DP disease control rating
[4] = 72 h, 3 Day Curative, read-out: PUCCRT 3DC disease control rating

CCCC[C@@H]([C@H](C)OC(=O)[C@H](C)NC(=O)c1nccc(OC)c1OC(C)=O)[C@@H](CC)Oc1ccccc1 [Compound 190]
pest or weed control at 121.5 g/ha (Zymoseptoria tritici; [1]): 80 to 100%
pest or weed control at 121.5 g/ha (Zymoseptoria tritici; [2]): 80 to 100%
pest or weed control at 121.5 g/ha (Puccinia triticina; [3]): 80 to 100%
pest or weed control at 121.5 g/ha (Puccinia triticina; [4]): 80 to 100%

CC[C@H](NC(=O)c1nccc(OC)c1OC(C)=O)C(=O)O[C@@H](C)C(Cc1ccc(OC)cc1)Cc1ccc(OC)cc1 [Compound 273]
pest or weed control at 121.5 g/ha (Zymoseptoria tritici; [1]): 80 to 100%
pest or weed control at 121.5 g/ha (Zymoseptoria tritici; [2]): 0 to 80%
pest or weed control at 121.5 g/ha (Puccinia triticina; [3]): 0 to 80%
pest or weed control at 121.5 g/ha (Puccinia triticina; [4]): 0 to 80%

COc1ccnc(C(=O)N[C@@H](C)C(=O)O[C@@H](C)[C@H](Cc2ccccc2)c2ccccc2)c1O [Compound 119]
pest or weed control at 100 ppm (Zymoseptoria tritici; 72 h, High-volume cereal activity at 100 ppm, 3 Day Curative, wheat seedlings, read-out: SEPTTR 3DC disease control rating): 0 to 80%
